In patent publication US20260008995A1, “ISOLATED […], COMPOSITIONS COMPRISING THE SAME, AND USES THEREOF” (MOON (GUANGZHOU) BIOTECH CO., LTD., priority 2023, published 2026):

Assays:
Strain MNH05119 = assay: antibiotic susceptibility testing, disk diffusion test; assay type: cell-based, Christensenella sp.; conditions: for MNH05119 Inhibition Zone Diameter: disk diffusion, strain MNH05119; for susceptibility of strain MNH05119 to the antibiotic: result in words
Procedure: (§1) Antibiotic susceptibility testing was performed separately for each strain using the disk diffusion test.

Strain MNH04863 = assay: as above; assay type: cell-based, Christensenella sp.; conditions: for MNH04863 Inhibition Zone Diameter: disk diffusion, strain MNH04863; for susceptibility of strain MNH04863 to the antibiotic: result in words
Procedure: as §1

Strain MNH06163 = assay: as above; assay type: cell-based, Christensenella sp.; conditions: for MNH06163 Inhibition Zone Diameter: disk diffusion, strain MNH06163; for susceptibility of strain MNH06163 to the antibiotic: result in words
Procedure: as §1

[1] = test system: type II diabetic mice (db/db); assay: combination of MNH05119 and metformin in type II diabetic model mice (Example 7); assay type: in vivo, BKS-Leprem2Cd479/Gpt (db/db) mice; conditions: 28 days, MNH05119 2×10^10 CFU/mouse twice daily, metformin 250 mg/kg once daily, oral gavage
Text: (1) Experimental animals: The experimental mice were BKS-Leprem2Cd479/Gpt (db/db) mice, aged 5-6 weeks, 32 mice in total, purchased from GuangDong GemPharmatech Co., Ltd.
The activated strain was inoculated in MM01 liquid medium and cultured anaerobically to obtain a sufficient amount of cultures. These cultures were centrifuged, concentrated and resuspended in a solvent to obtain the subjects with purity and viable bacteria counts (1×10^11 CFU/mL) that satisfy the requirements of the animal experiments.
3) Negative control (HFD-control group): PBS-Cys was used as a negative control.
5) Experimental procedure: 5 to 6-week-old of 32 BKS-Leprem2Cd479/Gpt (db/db) male
mice were randomly grouped according to their body weights after quarantine, with 8 mice/group divided into 4 groups. […] All data were expressed as mean±SD, graphed and statistically analyzed using GraphPad Prism 8.0.2 software. […]
6) Oral Glucose Tolerance Test (OGTT): On the 27th day (Day27) of administration, OGTT was determined after 12 h of fasting (e.g., fasting from 20:30:00 μm to 08:30:00 μm the following day). The fasting body weights of the mice were measured and glucose was administered by gavage at a dose of 2 g/kg (glucose g/mouse fasting body weight kg). Fasting blood glucose as well as blood glucose values at 15 min, 30 min, 60 min, 90 min and 120 min post-glucose administration were measured.

| Molecule | MNH05119 Inhibition Zone Diameter (Strain MNH05119) [mm] | susceptibility of strain MNH05119 to the antibiotic (Strain MNH05119) | MNH04863 Inhibition Zone Diameter (Strain MNH04863) [mm] | susceptibility of strain MNH04863 to the antibiotic (Strain MNH04863) | MNH06163 Inhibition Zone Diameter (Strain MNH06163) [mm] | susceptibility of strain MNH06163 to the antibiotic (Strain MNH06163) | reduction of fasting blood glucose value compared to negative control group [1] [%] |
| --- | --- | --- | --- | --- | --- | --- | --- |
| CCC[C@@H]1C[C@@H](C(=O)N[C@@H]([C@H]2O[C@H](SC)[C@H](O)[C@@H](O)[C@H]2O)[C@@H](C)O)N(C)C1 [Lincomycin (LIN), Lincomycin] | 0 | resistance | 29.86 | sensitive | 0 | resistance |  |
| CC[C@H]1OC(=O)[C@H](C)[C@@H](O[C@H]2C[C@@](C)(OC)[C@@H](O)[C@H](C)O2)[C@H](C)[C@@H](O[C@@H]2O[C@H](C)C[C@H](N(C)C)[C@H]2O)[C@](C)(O)C[C@@H](C)C(=O)[C@H](C)[C@@H](O)[C@]1(C)O [Erythromycin (ERM), Erythromycin] | 31.65 | sensitive | 16.82 | sensitive | 8.72 | sensitive |  |
| CO/N=C(\C(=O)N[C@@H]1C(=O)N2C(C(=O)O)=C(CSc3nc(=O)c(=O)[nH]n3C)CS[C@H]12)c1csc(N)n1 [Ceftriaxone (CTR), Ceftriaxone] | 0 | resistance | 37.32 | sensitive | 0 | resistance |  |
| Gentamycin [Gentamycin (GEN)] | 0 | resistance | 0 | resistance | 0 | resistance |  |
| CN(C)C(=N)N=C(N)N [metformin] |  |  |  |  |  |  | 50 |
| CN(C)[C@@H]1C(O)=C(C(N)=O)C(=O)[C@@]2(O)C(O)=C3C(=O)c4c(O)cccc4[C@@](C)(O)[C@H]3C[C@@H]12 [Tetracycline (TET), Tetracycline] | 24.12 |  | 46.11 |  | 18.14 |  |  |
| O=C(N[C@H](CO)[C@H](O)c1ccc([N+](=O)[O-])cc1)C(Cl)Cl [Chloramphenicol (CLM), Chloramphenicol] | 32.49 | sensitive | 38.88 | sensitive | 21.59 | sensitive |  |
| Compound sulfamethoxazole [sulfamethoxazole (T/S)] | 0 | resistance | 0 | resistance | 0 | resistance |  |
| CC1(C)S[C@@H]2[C@H](NC(=O)[C@H](N)c3ccccc3)C(=O)N2[C@H]1C(=O)O [Ampicillin (AMP), Ampicillin] | 0 | resistance | 0 | resistance | 0 | resistance |  |
| Penicillin [Penicillin (PEN)] | 0 | resistance | 43.06 | sensitive | 0 | resistance |  |
| O=C(O)c1cn(C2CC2)c2cc(N3CCNCC3)c(F)cc2c1=O [Ciprofloxacin (CFX), Ciprofloxacin] | 0 | resistance | 0 | resistance | 0 | resistance |  |
